Assay results: patent US12421211B2, “Heterocyclic compounds” (Hoffmann-La Roche Inc., priority 2021, dated 2025)
Counter-ions that a name gives are not always drawn. Like-named read-outs stand apart in the source and are kept apart here.

Tested on: Acinetobacter baumannii ATCC17961
Test: Antimicrobial susceptibility testing: 90% growth inhibitory concentration (IC90) determination
Assay type: cell-based
Conditions: read-out: ATCC 17961 IC90
Procedure: Assay Procedures Antimicrobial Susceptibility Testing: 90% Growth Inhibitory Concentration (IC90) Determination
The in vitro antimicrobial activity of the compounds was determined according to the following procedure:
The assay used a 10-points Iso-Sensitest broth medium to measure quantitatively the in vitro activity of the compounds against Acinetobacter baumannii ATCC17961.
Stock compounds in DMSO were serially twofold diluted (e.g. range from 50 to 0.097 μM final concentration) in 384 wells microtiter plates and inoculated with 49 μl the bacterial suspension in Iso-Sensitest medium to have a final cell concentration of ˜5×10^(5) CFU/ml in a final volume/well of 50 ul/well. Microtiter plates were incubated at 35±2° C.
Bacterial cell growth was determined with the measurement of optical density at λ=600 nm each 20 minutes over a time course of 16h. Growth inhibition was calculated during the logarithmic growth of the bacterial cells with determination of the concentration inhibiting 50% (IC50) and 90% (IC90) of the growth.
Table 1 provides the 90% growth inhibitory concentrations (IC90) in micromoles per liter of the compounds of present invention obtained against the strain Acinetobacter baumannii ATCC17961.

[1] = Acinetobacter baumannii, ATCC17961, 16 h, 90% growth inhibitory concentration, Acinetobacter baumannii ATCC17961, Iso-Sensitest broth, OD 600 nm over 16 h
[2] = 90% growth inhibitory concentration, Acinetobacter baumannii ATCC17961, Iso-Sensitest broth, OD 600 nm over 16 h, formic acid, formate
[3] = Acinetobacter baumannii, ATCC17961, 16 h

| Structure (SMILES) | IC90 [1] [nM] | IC90 [3] [nM] | also measured |
| --- | --- | --- | --- |
| COCCn1cc(-c2ccc(-c3cnc(C(=O)Nc4ccc(C(=O)N5CCN(C(=O)C6[C@H]7C[N+](C)(C)C[C@@H]67)CC5)c(Cl)c4)n3C)c(F)c2F)c(C)n1 (stereo partly drawn) [Example B25, N-[3-chloro-4-[4-[(1R,5S)-3,3-dimethyl-3-azoniabicyclo[3.10]hexane-6-carbonyl]piperazine-1-carbonyl]phenyl]-5-[2,3-difluoro-4-[1-(2-methoxyethyl)-3-methyl-pyrazol-4-yl]phenyl]-1-methyl-imidazole-2-carboxamide; formate] | – | – | IC90 (90% growth inhibitory concentration, Acinetobacter baumannii ATCC17961, Iso-Sensitest broth, OD 600 nm over 16 h): 270 nM |
| COCCn1ncc(-c2ccc(-c3cnc(C(=O)Nc4ccc(C(=O)N5CCN(C(=O)[C@H]6[C@@H]7C[N+](C)(C)C[C@@H]76)CC5)c(Cl)c4)n3C)c(F)c2F)c1C [Example B26, N-[3-chloro-4-[4-[(1R,5S)-3,3-dimethyl-3-azoniabicyclo[3.10]hexane-6-carbonyl]piperazine-1-carbonyl]phenyl]-5-[2,3-difluoro-4-[1-(2-methoxyethyl)-5-methyl-pyrazol-4-yl]phenyl]-1-methyl-imidazole-2-carboxamide; formate] | 64 | – | – |
| COCCn1ncc(-c2ccc(-c3cnc(C(=O)Nc4ccc(C(=O)N5CCN(C(=O)C6CC[N+](CC(=O)O)(CC7CNC7)CC6)CC5)c(Cl)c4)n3C)c(F)c2F)c1C (stereo not shown) [Example B29, 2-[1-(azetidin-3-ylmethyl)-4-[4-[2-chloro-4-[[5-[2,3-difluoro-4-[1-(2-methoxyethyl)-5-methyl-pyrazol-4-yl]phenyl]-1-methyl-imidazole-2-carbonyl]amino]benzoyl]piperazine-1-carbonyl]piperidin-1-ium-1-yl]acetic acid; formic acid; formate] | – | – | IC90 [2]: 340 nM |
| COCCn1ncc(-c2ccc(-c3cnc(C(=O)Nc4ccc(C(=O)N5CCN(C(=O)C6CC[N+](CC(=O)O)(CC7CNC7)CC6)CC5)c(Cl)c4)n3C)c(F)c2F)c1C (stereo not shown) [Example B30, 2-[1-(azetidin-3-ylmethyl)-4-[4-[2-chloro-4-[[5-[2,3-difluoro-4-[1-(2-methoxyethyl)-5-methyl-pyrazol-4-yl]phenyl]-1-methyl-imidazole-2-carbonyl]amino]benzoyl]piperazine-1-carbonyl]piperidin-1-ium-1-yl]acetic acid; formic acid; formate] | – | – | IC90 [2]: 190 nM |
| COCCn1ncc(-c2ccc(-c3cnc(C(=O)Nc4ccc(C(=O)N5CCN(C(=O)C6CCN(CC7C[N+](C)(C)C7)CC6)CC5)c(Cl)c4)n3C)c(F)c2F)c1C [Example B31, N-[3-chloro-4-[4-[1-[(1,1-dimethylazetidin-1-ium-3-yl)methyl]piperidine-4-carbonyl]piperazine-1-carbonyl]phenyl]-5-[2,3-difluoro-4-[1-(2-methoxyethyl)-5-methyl-pyrazol-4-yl]phenyl]-1-methyl-imidazole-2-carboxamide] | – | 71 | – |
| COCCn1ncc(-c2ccc(-c3cnc(C(=O)Nc4ccc(C(=O)N5CCN(C(=O)C6CC[N+](C)(CC(F)F)CC6)CC5)c(Cl)c4)n3C)c(F)c2F)c1C (stereo not shown) [Example B32, N-[3-chloro-4-[4-[1-(2,2-difluoroethyl)-1-methyl-piperidin-1-ium-4-carbonyl]piperazine-1-carbonyl]phenyl]-5-[2,3-difluoro-4-[1-(2-methoxyethyl)-5-methyl-pyrazol-4-yl]phenyl]-1-methyl-imidazole-2-carboxamide; 2,2,2-trifluoroacetate] | – | 58 | – |
| COCCn1ncc(-c2ccc(-c3cnc(C(=O)Nc4ccc(C(=O)N5CCN(C(=O)C6CCN(CCS(N)(=O)=O)CC6)CC5)c(Cl)c4)n3C)c(F)c2F)c1C [Example B33, N-[3-chloro-4-[4-[1-(2-sulfamoylethyl)piperidine-4-carbonyl]piperazine-1-carbonyl]phenyl]-5-[2,3-difluoro-4-[1-(2-methoxyethyl)-5-methyl-pyrazol-4-yl]phenyl]-1-methyl-imidazole-2-carboxamide] | – | 820 | – |
| Cc1n[nH]cc1-c1ccc(-c2cnc(C(=O)Nc3ccc(C(=O)N4CCN(C(=O)C5CCC[N+]5(C)CCO)CC4)c(Cl)c3)n2C)c(F)c1F (stereo not shown) [Example B35, N-[3-chloro-4-[4-[1-(2-hydroxyethyl)-1-methyl-pyrrolidin-1-ium-2-carbonyl]piperazine-1-carbonyl]phenyl]-5-[2,3-difluoro-4-(3-methyl-1H-pyrazol-4-yl)phenyl]-1-methyl-imidazole-2-carboxamide; 2,2,2-trifluoroacetate] | – | 130 | – |
| Cc1n[nH]cc1-c1ccc(-c2cnc(C(=O)Nc3ccc(C(=O)N4CCN(C(=O)[C@@H]5C[C@@H](O)C[N+]5(C)CCO)CC4)c(Cl)c3)n2C)c(F)c1F (stereo partly drawn) [Example B36, N-[3-chloro-4-[4-[(2S,4R)-4-hydroxy-1-(2-hydroxyethyl)-1-methyl-pyrrolidin-1-ium-2-carbonyl]piperazine-1-carbonyl]phenyl]-5-[2,3-difluoro-4-(3-methyl-1H-pyrazol-4-yl)phenyl]-1-methyl-imidazole-2-carboxamide; 2,2,2-trifluoroacetate] | – | 110 | – |

More lines, main results first:

| IC90 [1] [nM] | Structure (SMILES) | IC90 [3] [nM] | also measured |
| --- | --- | --- | --- |
| 240 | COCCn1cc(-c2ccc(-c3cnc(C(=O)Nc4ccc(C(=O)N5CCN(C(=O)[C@@H]6C[C@@H](O)C[N+]6(C)CCCO)CC5)c(Cl)c4)n3C)c(F)c2F)c(C)n1 (stereo partly drawn) [Example B27, N-[3-chloro-4-[4-[(2S,4R)-4-hydroxy-1-(3-hydroxypropyl)-1-methyl-pyrrolidin-1-ium-2-carbonyl]piperazine-1-carbonyl]phenyl]-5-[2,3-difluoro-4-[1-(2-methoxyethyl)-3-methyl-pyrazol-4-yl]phenyl]-1-methyl-imidazole-2-carboxamide; iodide] | – | – |
| 230 | COCCn1ncc(-c2ccc(-c3cnc(C(=O)Nc4ccc(C(=O)N5CCN(C(=O)C6CC[N+](CC(=O)O)(CC7CNC7)CC6)CC5)c(Cl)c4)n3C)c(F)c2Cl)c1C (stereo not shown) [Example B28, 2-[1-(azetidin-3-ylmethyl)-4-[4-[2-chloro-4-[[5-[3-chloro-2-fluoro-4-[1-(2-methoxyethyl)-5-methyl-pyrazol-4-yl]phenyl]-1-methyl-imidazole-2-carbonyl]amino]benzoyl]piperazine-1-carbonyl]piperidin-1-ium-1-yl]acetic acid; formate] | – | – |
| 200 | COCCn1ncc(-c2ccc(-c3cnc(C(=O)Nc4ccc(C(=O)N5CCN(C(=O)C6CC[N+](CC(=O)O)(CC7CNC7)CC6)CC5)c(Cl)c4)n3C)c(Cl)c2F)c1C (stereo not shown) [Example B37, 2-[1-(azetidin-3-ylmethyl)-4-[4-[2-chloro-4-[[5-[2-chloro-3-fluoro-4-[1-(2-methoxyethyl)-5-methyl-pyrazol-4-yl]phenyl]-1-methyl-imidazole-2-carbonyl]amino]benzoyl]piperazine-1-carbonyl]piperidin-1-ium-1-yl]acetic acid; formate] | – | – |
| 300 | COCCn1ncc(-c2ccc(-c3cnc(C(=O)Nc4ccc(C(=O)N5CCN(C(=O)N6CC[N+](CC(=O)O)(CC7CNC7)CC6)CC5)c(Cl)c4)n3C)c(F)c2F)c1C [Example B38, 2-[1-(azetidin-3-ylmethyl)-4-[4-[2-chloro-4-[[5-[2,3-difluoro-4-[1-(2-methoxyethyl)-5-methyl-pyrazol-4-yl]phenyl]-1-methyl-imidazole-2-carbonyl]amino]benzoyl]piperazine-1-carbonyl]piperazin-1-ium-1-yl]acetic acid; formate] | – | – |
